Results: patent publication US9150568B2, “Compositions and methods for modulating FXR” (NOVARTIS AG, priority 2010, dated 2015)

Molecular target: T1, human Farnesoid X Receptor (FXR) ligand binding domain (GST-FXR LBD) (Homo sapiens, UniProt Q96RI1)
T1 construct: purchased Invitrogen
T1 sequence (Q96RI1 193-472 isoform Q96RI1-2): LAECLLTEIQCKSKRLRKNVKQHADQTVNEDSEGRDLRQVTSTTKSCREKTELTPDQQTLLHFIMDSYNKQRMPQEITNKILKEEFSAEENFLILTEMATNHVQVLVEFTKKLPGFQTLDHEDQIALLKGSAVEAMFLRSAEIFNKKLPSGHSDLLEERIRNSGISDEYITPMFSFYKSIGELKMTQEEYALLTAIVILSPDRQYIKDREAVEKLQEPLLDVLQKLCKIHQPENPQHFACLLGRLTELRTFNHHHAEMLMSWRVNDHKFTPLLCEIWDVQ
Assay: Human GST-FXR LBD co-activator interaction assay (HTRF)
Type: biochemical
Details: GST-FXR LBD / biotin-SRC-1 peptide FRET; response relative to GW4064; read-out: FXR Co-activator interaction assay (EC50)
Description: Human GST-FXR LBD Co-activator interaction Assay. The FXR HTRF assay is a biochemical assay measuring the interaction between FXR and a coactivator protein (SRC1). The ligand-induced interaction with a coactivator protein is a critical step in transcriptional activation by FXR. Thus, this is an assay designed to measure FXR agonist activity of compounds.
The ligand-dependent interaction between GST-FXR LBD and a peptide derived from Steroid Receptor Coactivator-1 (SRC-1) was monitored by Fluorescence Resonance Energy Transfer (FRET). […] Test compounds (in DMSO solution) and detection reagents (anti-GST-Cryptate labeled antibody and Streptavidin-XL665 conjugate; CisBio) were added in assay buffer containing 50 mM KF.
A negative control (without Streptavidin-XL665) was run with each assay and represented the background fluorescence. A reference FXR agonist, GW4064, was included in each experiment as positive control. The efficacy of each test compound was compared to that of GW4064. At each concentration, the relative activity of the test compound was expressed as Response %=(Rsample−RDMSO)/(Rpositive−RDMSO), where Rsample is the HTRF response (expressed in Delta F %) for the test compound, Rpositive is the maximal response for GW4064 at saturating concentrations, and RDMSO is the response for DMSO control. The EC50 values were calculated using GraphPad Prism (GraphPad Software) using non-linear regression curve fit (log(agonist) vs. response—variable slope (four parameters)).

Question: For `O=C(O)c1cc(F)c2nc(N3C4CC[C@H]3C[C@H](OCc3c(C5CC5C(F)(F)F)noc3C3CC3)C4)sc2c1` (mixture of isomers) [Example 11], which EC50 is on record?
Answer: Its EC50 is 30 nM.

Question: How did the EC50 turn out when `O=C(O)c1cc(F)c2nc(N3C4CC[C@H]3CC(OCc3c(-c5ccccc5C(F)(F)F)noc3C3CC3)C4)sc2c1` (stereo in doubt) [Example 1-2B, 2-[3-({5-cyclopropyl-3-[2-(trifluoromethyl)phenyl]-1,2-oxazol-4-yl}methoxy)-8-azabicyclo[3.2.1]octan-8-yl]-4-fluoro-1,3-benzothiazole-6-carboxylic acid] was run?
Answer: The EC50 was 0.25 nM.

Question: With `O=C(O)c1ccc2nc(N3C4CC[C@H]3C[C@H](OCc3c(C5CCCCC5C(F)(F)F)noc3C3CC3)C4)sc2c1` (stereo in doubt) [Example 7B, 2-(3-((5-cyclopropyl-3-((trans)-2-(trifluoromethyl)cyclohexyl)isoxazol-4-yl)methoxy)-8-azabicyclo[3.2.1]octan-8-yl)benzo[d]thiazole-6-carboxylic acid] as the molecule, how does the EC50 read?
Answer: Its EC50 is 16 nM.

Question: Which EC50 does the source give for `COC(=O)c1ccc(N2C3CC[C@H]2CC(OCc2c(-c4ccccc4OC(F)(F)F)noc2C2CC2)C3)c(F)c1` (stereo in doubt) [Example 23A, Methyl 4-(3-((5-cyclopropyl-3-(2-(trifluoromethoxy)phenyl)isoxazol-4-yl)methoxy)-8-azabicyclo[3.2.1]octan-8-yl)-3-fluorobenzoate] here?
Answer: The EC50 was 6 nM.

Question: Which EC50 does the source give for `O=C(O)c1ccc(N2C3CC[C@H]2CC(OCc2c(-c4ccccc4OC(F)(F)F)noc2C2CC2)C3)c(F)c1` (stereo in doubt) [Example 23B, 4-(3-((5-cyclopropyl-3-(2-(trifluoromethoxy)phenyl)isoxazol-4-yl)methoxy)-8-azabicyclo[3.2.1]octan-8-yl)-3-fluorobenzoic acid] here?
Answer: The EC50 was 4 nM.

Question: `Fc1cc(-c2nn[nH]n2)ccc1N1C2CC[C@H]1CC(OCc1c(-c3ccccc3OC(F)F)noc1C1CC1)C2` (stereo in doubt) [Example 26B, 5-cyclopropyl-3-(2-(difluoromethoxy)phenyl)-4-(((8-(2-fluoro-4-(2H-tetrazol-5-yl)phenyl)-8-azabicyclo[3.2.1]octan-3-yl)oxy)methyl)isoxazole] was tested. Which EC50 did it give?
Answer: Its EC50 is 0.3 nM.

Question: For `O=C(O)c1cn2nc(N3C4CC[C@H]3CC(OCc3c(-c5ccccc5OC(F)(F)F)noc3C3CC3)C4)ccc2n1` (stereo in doubt) [Example 31-1, 6-(3-((5-Cyclopropyl-3-(2-(trifluoromethoxy)phenyl)isoxazol-4-yl)methoxy)-8-azabicyclo[3.2.1]octan-8-yl)imidazo[1,2-b]pyridazine-2-carboxylic acid], which EC50 is on record?
Answer: The EC50 was 12 nM.

Question: With `O=C(O)c1cnc2cc(N3C4CC[C@H]3CC(OCc3c(-c5ccccc5OC(F)(F)F)noc3C3CC3)C4)ccn12` (stereo in doubt) [Example 32-1, 7-(3-((5-cyclopropyl-3-(2-(trifluoromethoxy)phenyl)isoxazol-4-yl)methoxy)-8-azabicyclo[3.2.1]octan-8-yl)imidazo[1,2-a]pyridine-3-carboxylic acid] as the molecule, how does the EC50 read?
Answer: The EC50 was 3 nM.

Question: How did the EC50 turn out when `COC(=O)c1cc(F)c2nc(N3C4CC[C@H]3CC(OCc3c(-c5ccccc5OC(F)(F)F)noc3C3CC3)C4)sc2c1` (stereo partly drawn) [Example 1-1A, Methyl 2-(3-((5-cyclopropyl-3-(2-(trifluoromethoxy)phenyl)isoxazol-4-yl)methoxy)-8-azabicyclo[3.2.1]octan-8-yl)-4-fluorobenzo[d]thiazole-6-carboxylate] was run?
Answer: Its EC50 is 14 nM.

Question: For `COC(=O)c1cc(F)c2nc(N3C4CC[C@H]3CC(OCc3c(-c5ccccc5C(F)(F)F)noc3C3CC3)C4)sc2c1` (stereo partly drawn) [Example 1-2A], which EC50 is on record?
Answer: The EC50 was 28 nM.

Question: `COc1cc(C(=O)O)cc2sc(N3C4CC[C@H]3CC(OCc3c(-c5ccccc5OC(F)(F)F)noc3C3CC3)C4)nc12` (stereo partly drawn) [Example 2-1B, 2-(3-((5-cyclopropyl-3-(2-(trifluoromethoxy)phenyl)isoxazol-4-yl)methoxy)-8-azabicyclo[3.2.1]octan-8-yl)-4-methoxybenzo[d]thiazole-6-carboxylic acid] was tested. Which EC50 did it give?
Answer: Its EC50 is 0.17 nM.

Question: `COc1cc(C(=O)O)cc2sc(N3C4CC[C@H]3CC(OCc3c(-c5ccccc5C(F)(F)F)noc3C3CC3)C4)nc12` (stereo partly drawn) [Example 2-2B] was tested. Which EC50 did it give?
Answer: The EC50 was 3 nM.

Question: With `CCOC(=O)c1ccc2nc(N3C4CC[C@H]3CC(OCc3c(-c5ccccc5OC(F)(F)F)noc3C3CC3)C4)sc2c1` (stereo partly drawn) [Example 3A, ethyl 2-(3-((5-cyclopropyl-3-(2-(trifluoromethoxy)phenyl)isoxazol-4-yl)methoxy)-8-azabicyclo[3.2.1]octan-8-yl)benzo[d]thiazole-6-carboxylate] as the molecule, how does the EC50 read?
Answer: The EC50 was 20 nM.

Question: For `O=C(O)c1ccc2nc(N3C4CC[C@H]3CC(OCc3c(-c5ccccc5OC(F)(F)F)noc3C3CC3)C4)sc2c1` (stereo partly drawn) [Example 3B], which EC50 is on record?
Answer: The EC50 was 0.74 nM.

Question: `CC(C)(O)c1ccc2nc(N3C4CC[C@H]3CC(OCc3c(-c5ccccc5OC(F)(F)F)noc3C3CC3)C4)sc2c1` (stereo partly drawn) [Example 4, 2-(2-(3-((5-cyclopropyl-3-(2-(trifluoromethoxy)phenyl)isoxazol-4-yl)methoxy)-8-azabicyclo[3.2.1]octan-8-yl)benzo[d]thiazol-6-yl)propan-2-ol] was tested. Which EC50 did it give?
Answer: The EC50 was 22 nM.

Question: How did the EC50 turn out when `NC(=O)c1cc(F)c2nc(N3C4CC[C@H]3C[C@H](OCc3c(-c5ccccc5OC(F)(F)F)noc3C3CC3)C4)sc2c1` [Example 5-1] was run?
Answer: Its EC50 is 7.6 nM.

Question: With `NC(=O)c1ccc(N2C3CC[C@H]2C[C@H](OCc2c(-c4ccccc4OC(F)(F)F)noc2C2CC2)C3)nc1` [Example 5-2] as the molecule, how does the EC50 read?
Answer: The EC50 was 3.8 nM.

Question: How did the EC50 turn out when `Cc1cc(C(N)=O)nc(N2C3CC[C@H]2C[C@H](OCc2c(-c4ccccc4OC(F)F)noc2C2CC2)C3)n1` [Example 5-3] was run?
Answer: The EC50 was 20 nM.

Question: How did the EC50 turn out when `CCOC(=O)c1ccc2nc(N3C4CC[C@H]3C[C@H](OCc3c(-c5ccccc5C(F)(F)F)noc3C3CC3)C4)sc2c1` [Example 6-1A] was run?
Answer: The EC50 was 63 nM.

Question: With `O=C(O)c1ccc2nc(N3C4CC[C@H]3C[C@H](OCc3c(-c5ccccc5C(F)(F)F)noc3C3CC3)C4)sc2c1` [Example 6-1B] as the molecule, how does the EC50 read?
Answer: Its EC50 is 0.67 nM.

Question: For `CCOC(=O)c1ccc2nc(N3C4CC[C@H]3C[C@H](OCc3c(-c5ccccc5OC(F)F)noc3C3CC3)C4)sc2c1` [Example 6-2A], which EC50 is on record?
Answer: Its EC50 is 51 nM.

Question: How did the EC50 turn out when `O=C(O)c1ccc2nc(N3C4CC[C@H]3C[C@H](OCc3c(-c5ccccc5OC(F)F)noc3C3CC3)C4)sc2c1` [Example 6-2B] was run?
Answer: The EC50 was 0.36 nM.

Question: Which EC50 does the source give for `COC(=O)c1cc(F)c2nc(N3C4CC[C@H]3C[C@H](OCc3c(-c5ccccc5OC(F)F)noc3C3CC3)C4)sc2c1` [Example 6-3A] here?
Answer: Its EC50 is 12 nM.

Question: `O=C(O)c1cc(F)c2nc(N3C4CC[C@H]3C[C@H](OCc3c(-c5ccccc5OC(F)F)noc3C3CC3)C4)sc2c1` [Example 6-3B] was tested. Which EC50 did it give?
Answer: The EC50 was 0.27 nM.

Question: Which EC50 does the source give for `COc1cc(C(=O)O)cc2sc(N3C4CC[C@H]3C[C@H](OCc3c(-c5ccccc5OC(F)F)noc3C3CC3)C4)nc12` [Example 6-4] here?
Answer: Its EC50 is 0.18 nM.

Question: With `CCOC(=O)c1ccc2nc(N3C4CC[C@H]3C[C@H](OCc3c(-c5c(F)cccc5F)noc3C3CC3)C4)sc2c1` [Example 6-5A] as the molecule, how does the EC50 read?
Answer: The EC50 was 3.8 nM.

Question: How did the EC50 turn out when `O=C(O)c1ccc2nc(N3C4CC[C@H]3C[C@H](OCc3c(-c5c(F)cccc5F)noc3C3CC3)C4)sc2c1` [Example 6-5B] was run?
Answer: The EC50 was 5.6 nM.

Question: For `COC(=O)c1cc(OC)c2nc(N3C4CC[C@H]3C[C@H](OCc3c(-c5c(F)cccc5F)noc3C3CC3)C4)sc2c1` [Example 6-6A], which EC50 is on record?
Answer: The EC50 was 14 nM.

Question: Which EC50 does the source give for `COc1cc(C(=O)O)cc2sc(N3C4CC[C@H]3C[C@H](OCc3c(-c5c(F)cccc5F)noc3C3CC3)C4)nc12` [Example 6-6B] here?
Answer: Its EC50 is 0.3 nM.

Question: With `COC(=O)c1cc(F)c2nc(N3C4CC[C@H]3C[C@H](OCc3c(-c5c(F)cccc5F)noc3C3CC3)C4)sc2c1` [Example 6-7A] as the molecule, how does the EC50 read?
Answer: The EC50 was 14 nM.

Question: Which EC50 does the source give for `O=C(O)c1cc(F)c2nc(N3C4CC[C@H]3C[C@H](OCc3c(-c5c(F)cccc5F)noc3C3CC3)C4)sc2c1` [Example 6-7B] here?
Answer: The EC50 was 0.58 nM.

Question: `O=C(O)c1cc(F)c2nc(N3C4CC[C@H]3C[C@H](OCc3c(C5CCCCC5C(F)(F)F)noc3C3CC3)C4)sc2c1` (stereo partly drawn) [Example 8-1] was tested. Which EC50 did it give?
Answer: The EC50 was 4 nM.

Question: How did the EC50 turn out when `COc1cc(C(=O)O)cc2sc(N3C4CC[C@H]3C[C@H](OCc3c(C5CCCCC5C(F)(F)F)noc3C3CC3)C4)nc12` (stereo partly drawn) [Example 8-2] was run?
Answer: The EC50 was 2.4 nM.

Question: How did the EC50 turn out when `CC1(C)CCC(c2noc(C3CC3)c2CO[C@@H]2CC3CC[C@@H](C2)N3c2nc3ccc(C(=O)O)cc3s2)CC1` [Example 8-3] was run?
Answer: The EC50 was 18 nM.

Question: For `CC1(C)CCC(c2noc(C3CC3)c2CO[C@@H]2CC3CC[C@@H](C2)N3c2nc3c(F)cc(C(=O)O)cc3s2)CC1` [Example 8-4], which EC50 is on record?
Answer: Its EC50 is 8.9 nM.

Question: `O=C(O)c1cnc(N2C3CC[C@H]2C[C@H](OCc2c(C4CCCCC4C(F)(F)F)noc2C2CC2)C3)cn1` (stereo partly drawn) [Example 8-5B] was tested. Which EC50 did it give?
Answer: The EC50 was 110 nM.

Question: Which EC50 does the source give for `Cc1cc(C(=O)O)nc(N2C3CC[C@H]2C[C@H](OCc2c(C4CCCCC4C(F)(F)F)noc2C2CC2)C3)n1` (stereo partly drawn) [Example 8-6B] here?
Answer: The EC50 was 100 nM.

Question: How did the EC50 turn out when `Cc1cc(C(=O)O)nc(N2C3CC[C@H]2C[C@H](OCc2c(C4CCCCC4)noc2C2CC2)C3)n1` [Example 8-7B] was run?
Answer: The EC50 was 130 nM.

Question: `O=C(O)c1cc(F)c2nc(N3C4CC[C@H]3C[C@H](OCc3c(C5CCCCC5)noc3C3CC3)C4)sc2c1` [Example 9-1] was tested. Which EC50 did it give?
Answer: The EC50 was 5 nM.
